Measured values published in patent US20100316655A1, “COMPOUNDS WITH MDR1-INVERSE ACTIVITY” (priority 2008, published 2010).

Columns and labels:
[1] = tested on: KB-V1 adenocarcinoma cell line; experiment: MTT cytotoxicity assay, P-gp (MDR1) expressing KB-V1 cells; MDR1 selectivity vs KB-3-1; format: cell-based, human; details: for IC50: MTT, 72 hours; for MDR1 select. / MDR1 selectivity: ratio of IC50 against KB-3-1 divided by IC50 against KB-V1; for MDR1 selectivity: >1 = MDR1-inverse activity
Description: (§1) Exemplary compounds were also tested against the KB-V1 adenocarcinoma cell line that expresses high levels of P-gp (the protein product of MDR1). […] MDR1 selectivity is determined by the ratio of IC50 against KB-3-1 cells divided by its IC50 against KB-V1 cells.
(§2) This example describes evaluation of compounds using the MTT cytotoxicity assay. Cell survival was measured by the MTT (3-(4,5-dimethylthiazol-2-yl)-2,5-diphenyltetrazolium bromide) assay as previously described by Ludwig, J. A. et al. Selective toxicity of NSC73306 in MDR1-positive cells as a new strategy to circumvent multidrug resistance in cancer. […] Briefly, cells were seeded in […] of growth medium at a density of 5000 cells/well in 96-well plates and allowed to establish for 24 hours, at which time serially diluted drugs were added in an additional […] growth medium. Cells were then incubated for 72 hours at 37° C. in humidified 5% CO2, at which time the growth media was drawn, and replaced with MTT in IMDM growth media and incubated for 4 hours. The MTT solution was then drawn from the wells, and […] acidified ethanol solution was added to each well and after 15 minutes absorption at 560 nm was measured.

[2] = tested on: KB-3-1 adenocarcinoma cells; experiment: MTT cytotoxicity assay, parental P-gp-negative KB-3-1 cells; format: cell-based, human
Description: as §1, §2

[3] = Table 2, 72 hours, unit inferred
[4] = Homo sapiens, Table 1, KB-V1 (high P-gp)
[5] = Homo sapiens, Table 1, 72 hours, KB-3-1 (P-gp-negative)

Row | SMILES | IC50 ([1]; Table 2, unit inferred) [µM] | MDR1 select. ([1]; Table 2) | IC50 [2, 3] [µM] | MDR1-inverse selectivity (in words) ([1]; Example 3, Table 1, KB-V1 vs KB-3-1) | IC50 [1, 4] [µM] | MDR1 selectivity ([1]; Table 1) | IC50 [2, 5] [µM]
1 | O=C1Nc2ccccc2C1=NNC(=S)Nc1ccc(C(=O)O)cc1 [Compound M19, 1-isatin-4-(4′-carboxyphenyl)-3-thiosemicarbazone] | > 50 | 1.00 | > 50 | – | – | – | –
2 | O=C1Nc2ccccc2C1=NNC(=S)Nc1cccc2ccccc12 [Compound M20, 1-isatin-4-(1′-napthyl)-3-thiosemicarbazone] | 2.21 | 2.32 | 5.12 | – | – | – | –
3 | O=C1Nc2ccccc2C1=NNC(=S)Nc1ccc(Oc2ccccc2)cc1 [Compound M21, 1-Isatin-4-(4-phenoxybenzene)-3-thiosemicarbazone] | 1.67 | 3.44 | 5.72 | – | – | – | –
4 | O=C1Nc2ccccc2C1=NNC(=S)NC12CC3CC(CC(C3)C1)C2 [Compound M22, 1-isatin-4-(1′-adamantyl)-3-thiosemicarbazone] | 1.02 | 3.09 | 3.16 | – | – | – | –
5 | COc1cc(NC(=S)NN=C2C(=O)Nc3ccccc32)cc(OC)c1OC [Compound M23, 1-isatin-4-(3′,4′,5′-trimethoxyphenyl)-3-thiosemicarbazone] | 3.49 | 3.18 | 11.1 | – | – | – | –
6 | COc1ccc(NC(=S)NN=C2C(=O)Nc3ccccc32)cc1 [NSC73306, 1-Isatin-4-(4′ methoxyphenyl)thiosemicarbazone, reference compound] | 3.3 | 4.3 | 14.2 | MDR1-inverse selectivity | – | – | –
7 | O=C1Nc2ccc(Br)cc2/C1=N/NC(=S)Nc1ccc(F)cc1 [drawing 22] | – | – | – | – | 5.8 ± 2.5 | 2.3 | 13.1 ± 4.8
8 | O=C1Nc2ccc(Br)cc2/C1=N/NC(=S)Nc1ccc([N+](=O)[O-])cc1 [drawing 23] | – | – | – | – | 4 ± 0.6 | 7.1 | 28.4 ± 5.2
9 | COc1ccc(NC(=S)N/N=C2\C(=O)Nc3ccc(F)cc32)cc1 [drawing 34] | – | – | – | – | 5.2 ± 1.1 | 7.5 | 39.3 ± 23.3
10 | COc1ccc(NC(=S)N/N=C2\C(=O)N(C)c3ccccc32)cc1 [drawing 35] | – | – | – | – | 9.3 ± 2.8 | 2.1 | 19.6 ± 1.7
11 | COc1ccc(NC(=S)N/N=C/c2ccccn2)cc1 [drawing 37] | – | – | – | – | 2.4 ± 0.5 | 1.4 | 3.4 ± 1.5
12 | COc1ccc(NC(=S)N/N=C2\C(=O)Nc3ccc([N+](=O)[O-])cc32)cc1 [drawing 39] | – | – | – | – | 6.7 ± 2.9 | 4.0 | 26.3 ± 5.5
13 | C=CCNC(=S)N/N=C1\C(=O)Nc2ccccc21 [drawing 40] | – | – | – | – | 20.7 ± 7.7 | 1.3 | 26.1 ± 2.6
